According to patent US20220184052A1, “COMPOSITION COMPRISING FEXOFENADINE” (Cellix Bio Private Limited, priority 2020, published 2022):
Where a name gives a salt, the structure may show the parent alone.

Assay: Drug-excipient compatibility study, 40° C./75% RH-4 W (% degradants)
Format: physicochemical

- % Total (40° C./75% RH-4 W): 0.11%
- Description (40° C./75% RH-4 W): Clear
- % Total (Initial): 0.09%
- Description (Initial): Clear
Structure (SMILES): CC(C)(C(=O)O)c1ccc(C(O)CCCN2CCC(C(O)(c3ccccc3)c3ccccc3)CC2)cc1 (stereo not shown) [API, Fexofenadine HCl]
